Results: PubChem BioAssay AID1919006 (Molecular Pharmacology Branch, DTP, NCI, 2023)
pIC50: −log10 of the molar value.

Tested on: 885512-296-R-J2-PDC complex spheroid growth, % test/control
Assay: Anticancer human tumor 885512-296-R-J2-PDC patient-derived breast carcinoma cell line growth inhibition [AhR]
Conditions: for pIC50: curve of first compound; for viability, T/C: stronger effect = lower value
Summary of the method: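 Agents were dosed in half-log steps down from roughly clinical Cmax, or from 10 microM where Cmax was unknown, alone and with AhR antagonists. Read-out: percent test/control growth of tumor spheroids containing HUVEC and MSC stromal cells.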

[1] = second compound 0.1 µM, first compound 0.00949 µM
[2] = second compound 0.1 µM, first compound 0.03 µM
[3] = second compound 0.1 µM, first compound 0.0949 µM
[4] = second compound 0.1 µM, first compound 0.3 µM
[5] = second compound 0.1 µM, first compound 0.949 µM
[6] = second compound 0.1 µM, first compound 3 µM
[7] = second compound 0.316 µM, first compound 0.00949 µM
[8] = second compound 0.316 µM, first compound 0.03 µM
[9] = second compound 0.316 µM, first compound 0.0949 µM
[10] = second compound 0.316 µM, first compound 0.3 µM
[11] = second compound 0.316 µM, first compound 0.949 µM
[12] = second compound 0.316 µM, first compound 3 µM
[13] = second compound 1 µM, first compound 0.00949 µM
[14] = second compound 1 µM, first compound 0.03 µM
[15] = second compound 1 µM, first compound 0.0949 µM
[16] = second compound 1 µM, first compound 0.3 µM
[17] = second compound 1 µM, first compound 0.949 µM
[18] = second compound 1 µM, first compound 3 µM
[19] = second compound 3.16 µM, first compound 0.00949 µM
[20] = second compound 3.16 µM, first compound 0.03 µM
[21] = second compound 3.16 µM, first compound 0.0949 µM
[22] = second compound 3.16 µM, first compound 0.3 µM
[23] = second compound 3.16 µM, first compound 0.949 µM
[24] = second compound 3.16 µM, first compound 3 µM
[25] = second compound 10 µM, first compound 0.00949 µM
[26] = second compound 10 µM, first compound 0.03 µM
[27] = second compound 10 µM, first compound 0.0949 µM
[28] = second compound 10 µM, first compound 0.3 µM
[29] = second compound 10 µM, first compound 0.949 µM
[30] = second compound 10 µM, first compound 3 µM
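Further: spheroids exposed to compounds for seven days.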

With CC1COCCN1c1cc(C2(S(C)(=N)=O)CC2)nc(-c2ccnc3[nH]ccc23)n1 (stereo not given) + Cc1cncc(-c2nc(NCCc3c[nH]c4ccccc34)c3ncn(C(C)C)c3n2)c1 the pIC50 (second compound 0.1 µM) was 5.64, the pIC50 (second compound 0.316 µM) was 5.71 and the pIC50 (second compound 1 µM) was 5.82. It also gave a pIC50 (second compound 3.16 µM) of 6.55, a pIC50 (second compound 10 µM) greater than 7.50 and a viability, T/C (second compound 0.1 µM, first compound 0.0316 µM) of 99.8%. The viability, T/C (second compound 0.1 µM, first compound 0.1 µM) was 102%, the viability, T/C (second compound 0.1 µM, first compound 0.316 µM) was 103% and the viability, T/C (second compound 0.1 µM, first compound 1 µM) was 95%. For the same compound, the viability, T/C (second compound 0.1 µM, first compound 3.16 µM) was 32.3%, the viability, T/C (second compound 0.1 µM, first compound 10 µM) was 4.89% and the viability, T/C (second compound 0.316 µM, first compound 0.0316 µM) was 99.2%. The viability, T/C (second compound 0.316 µM, first compound 0.1 µM) was 99.5%, the viability, T/C (second compound 0.316 µM, first compound 0.316 µM) was 97.3% and the viability, T/C (second compound 0.316 µM, first compound 1 µM) was 81.9%. It also gave a viability, T/C (second compound 0.316 µM, first compound 3.16 µM) of 26.9%, a viability, T/C (second compound 0.316 µM, first compound 10 µM) of 6.7% and a viability, T/C (second compound 1 µM, first compound 0.0316 µM) of 86.4%. It also gave a viability, T/C (second compound 1 µM, first compound 0.1 µM) of 86.1%, a viability, T/C (second compound 1 µM, first compound 0.316 µM) of 82.9% and a viability, T/C (second compound 1 µM, first compound 1 µM) of 64.7%. The viability, T/C (second compound 1 µM, first compound 3.16 µM) was 23.6%, the viability, T/C (second compound 1 µM, first compound 10 µM) was 4.77% and the viability, T/C (second compound 3.16 µM, first compound 0.0316 µM) was 65%. The viability, T/C (second compound 3.16 µM, first compound 0.1 µM) was 55.3%, the viability, T/C (second compound 3.16 µM, first compound 0.316 µM) was 47.7% and the viability, T/C (second compound 3.16 µM, first compound 1 µM) was 42.4%. It also gave a viability, T/C (second compound 3.16 µM, first compound 3.16 µM) of 20.4%, a viability, T/C (second compound 3.16 µM, first compound 10 µM) of 6.04% and a viability, T/C (second compound 10 µM, first compound 0.0316 µM) of 22.3%. It also gave a viability, T/C (second compound 10 µM, first compound 0.1 µM) of 22.7%, a viability, T/C (second compound 10 µM, first compound 0.316 µM) of 19.9% and a viability, T/C (second compound 10 µM, first compound 1 µM) of 18.2%. For the same compound, the viability, T/C (second compound 10 µM, first compound 3.16 µM) was 12.5% and the viability, T/C (second compound 10 µM, first compound 10 µM) was 5%.

Work on CCN(c1cc(-c2ccc(CN3CCOCC3)cc2)cc(C(=O)NCc2c(C)cc(C)[nH]c2=O)c1C)C1CCOCC1 + Cc1cncc(-c2nc(NCCc3c[nH]c4ccccc34)c3ncn(C(C)C)c3n2)c1 yielded a pIC50 (second compound 0.1 µM) of less than 5.52, a pIC50 (second compound 0.316 µM) of less than 5.52 and a pIC50 (second compound 1 µM) of less than 5.52. For the same compound, the pIC50 (second compound 3.16 µM) was less than 5.52, the pIC50 (second compound 10 µM) was greater than 8.02 and the viability, T/C [1] was 98.8%. It also gave a viability, T/C [2] of 104%, a viability, T/C [3] of 91.3% and a viability, T/C [4] of 87.8%. For the same compound, the viability, T/C [5] was 94.8%, the viability, T/C [6] was 83.3% and the viability, T/C [7] was 102%. The viability, T/C [8] was 105%, the viability, T/C [9] was 98% and the viability, T/C [10] was 94.9%. It also gave a viability, T/C [11] of 88.5%, a viability, T/C [12] of 74.8% and a viability, T/C [13] of 91.4%. The viability, T/C [14] was 93.5%, the viability, T/C [15] was 85.7% and the viability, T/C [16] was 73.6%. It also gave a viability, T/C [17] of 72.8%, a viability, T/C [18] of 80.1% and a viability, T/C [19] of 58.6%. The viability, T/C [20] was 62.1%, the viability, T/C [21] was 59.9% and the viability, T/C [22] was 58.8%. The viability, T/C [23] was 53.5%, the viability, T/C [24] was 54.8% and the viability, T/C [25] was 21.8%. It also gave a viability, T/C [26] of 24.6%, a viability, T/C [27] of 24.4% and a viability, T/C [28] of 18.8%. The viability, T/C [29] was 13% and the viability, T/C [30] was 8.18%.

Compound Nc1ncn(C2CC(O)C(CO)S2)c(=O)n1 (stereo not given) + Cc1cncc(-c2nc(NCCc3c[nH]c4ccccc34)c3ncn(C(C)C)c3n2)c1 has a pIC50 (second compound 0.1 µM) of 7.02, a pIC50 (second compound 0.316 µM) of 7.03 and a pIC50 (second compound 1 µM) of 7.35. For the same compound, the pIC50 (second compound 3.16 µM) was 8.46, the pIC50 (second compound 10 µM) was greater than 9.02 and the viability, T/C (second compound 0.1 µM, first compound 0.000949 µM) was 99.5%. It also gave a viability, T/C (second compound 0.1 µM, first compound 0.003 µM) of 110%, a viability, T/C [1] of 107% and a viability, T/C [2] of 79%. The viability, T/C [3] was 53%, the viability, T/C [4] was 40.9% and the viability, T/C (second compound 0.316 µM, first compound 0.000949 µM) was 98%. The viability, T/C (second compound 0.316 µM, first compound 0.003 µM) was 94.1%, the viability, T/C [7] was 99.1% and the viability, T/C [8] was 75.9%. For the same compound, the viability, T/C [9] was 51.3%, the viability, T/C [10] was 38.8% and the viability, T/C (second compound 1 µM, first compound 0.000949 µM) was 67.6%. The viability, T/C (second compound 1 µM, first compound 0.003 µM) was 67.8%, the viability, T/C [13] was 70.7% and the viability, T/C [14] was 55.7%. The viability, T/C [15] was 38.8%, the viability, T/C [16] was 33.1% and the viability, T/C (second compound 3.16 µM, first compound 0.000949 µM) was 47.4%. For the same compound, the viability, T/C (second compound 3.16 µM, first compound 0.003 µM) was 54.8%, the viability, T/C [19] was 47.8% and the viability, T/C [20] was 42.5%. For the same compound, the viability, T/C [21] was 36%, the viability, T/C [22] was 27.5% and the viability, T/C (second compound 10 µM, first compound 0.000949 µM) was 21%. For the same compound, the viability, T/C (second compound 10 µM, first compound 0.003 µM) was 23.5%, the viability, T/C [25] was 18.9% and the viability, T/C [26] was 15%. The viability, T/C [27] was 17.4% and the viability, T/C [28] was 13.9%.

Work on O=C(C=Cn1cnc(-c2cc(C(F)(F)F)cc(C(F)(F)F)c2)n1)NNc1cnccn1 + Cc1cncc(-c2nc(NCCc3c[nH]c4ccccc34)c3ncn(C(C)C)c3n2)c1 yielded a pIC50 (second compound 0.1 µM) of 7.22, a pIC50 (second compound 0.316 µM) of 7.16 and a pIC50 (second compound 1 µM) of 7.18. The pIC50 (second compound 3.16 µM) was 7.37, the pIC50 (second compound 10 µM) was greater than 8.02 and the viability, T/C [1] was 93.3%. The viability, T/C [2] was 99.9%, the viability, T/C [3] was 20.3% and the viability, T/C [4] was 4.2%. For the same compound, the viability, T/C [5] was 2.2%, the viability, T/C [6] was 1.61% and the viability, T/C [7] was 97.4%. For the same compound, the viability, T/C [8] was 93%, the viability, T/C [9] was 33.8% and the viability, T/C [10] was 5.36%. For the same compound, the viability, T/C [11] was 2.35%, the viability, T/C [12] was 1.45% and the viability, T/C [13] was 98.2%. The viability, T/C [14] was 89.4%, the viability, T/C [15] was 31.6% and the viability, T/C [16] was 4.92%. It also gave a viability, T/C [17] of 2.78%, a viability, T/C [18] of 1.53% and a viability, T/C [19] of 64.6%. The viability, T/C [20] was 66.2%, the viability, T/C [21] was 14.8% and the viability, T/C [22] was 5.25%. For the same compound, the viability, T/C [23] was 2.77%, the viability, T/C [24] was 1.58% and the viability, T/C [25] was 19.2%. It also gave a viability, T/C [26] of 16.8%, a viability, T/C [27] of 8.05% and a viability, T/C [28] of 4.48%. For the same compound, the viability, T/C [29] was 3.45% and the viability, T/C [30] was 2.01%.
